These results are taken from US11612634B2 (priority 2020, dated 2023).

Assay [1] concerns morphine analgesic tolerance, inflammatory pain rat model. Kind of assay: Effect on morphine analgesic tolerance in Carr-induced inflammatory pain rat model. Type of assay: in vivo. The note with it: for effect of cysteine-mutated peptide on morphine analgesic tolerance: Carr model, with morphine, dose not given. The procedure: The Carr-induced inflammatory pain model was built according to a published method (Alessandri-Haber N, et al. Neurosci. Vol 29(19), pp. 6217-6288, 2009) for evaluating an analgesic effect of drugs administered by intraplantar injection. Specifically, 6 μL of 1 wt % Carr solution was injected into the rats between the 2nd and 3rd toes of a left hind paw to induce hyperalgesia, which was manifested as plantar swelling and a declined pain threshold of the rats within 1 hour after the injection. Those rats with a PWT lower than 100 gf were considered to be a desired Carr-induced inflammatory pain model, those rats with the PWT higher than 100 gf was removed.
(§1) (1) 24 healthy adult SD rats, weighing 180-220 g, were selected, reinjected with 6 μL of a 1 wt % Carr solution and divided into 4 groups randomly and averagely (i.e., groups A-D). The group A was injected with normal saline; the group B was intradermally injected with 0.1 μg/kg of the short peptide P10581 through the plantar surface of the left hind paw; the group C was intradermally injected with 0.1 μg/kg of the short peptide P10581 and then with 5 mg/kg of morphine 30 min later through the plantar surface of the left hind paw; and the group D was intradermally injected with 0.05 μg/kg of the short peptide P10581, and then with 5 mg/kg of morphine 30 min later through the plantar surface of the left hind paw. 1 h later, the PWT of each group was recorded when the mechanical withdrawal of the left hind paw occurred, and each rat was measured 3-5 times at an interval of 5-10 min.
(§2) (2) The drug was injected every 2 h according to the above-mentioned administration dose and time (seven times in total), and the PWT was recorded.
(S1) By means of molecular biological techniques, two cysteine residues (Cys10 and Cys11) in the short peptide P10581 were replaced with alanine (Ala), and the resulting peptide was named P10581-1 (SEQ ID NO: 2).
(S2) Three cysteine residues (Cys10, Cys11 and Cys17) in the short peptide P10581 were replaced with alanine (Ala), and the resulting peptide was named P10581-2 (SEQ ID NO: 3).
The rat was injected with 6 μL of 1 wt % Carr to establish a Carr-induced inflammatory pain model, and the effect of the short peptides P10581, P10581-1 and P10581-2 on the morphine analgesic tolerance was analyzed according to Experimental Example 1. […]

Assay [2] deals with Carr-induced inflammatory pain rat model. In words: Analgesic effect on mechanical hyperalgesia (PWT) in Carr-induced inflammatory pain rat model. In kind it is in vivo. The note with it: 2 μg/kg i.d. plantar, every 2 h, six injections. The procedure: The mechanical hyperalgesia of rats was measured by 38500-pressure application measurement (PAM) system (Ugo Basile Biological Research Apparatus, Comerio-Varese, Italy), which consisted of a hand-held part and an integrated electronic part. The hand-held part was a force sensor which was designed according to a Randall-Selitto algesimeter. The integrated electronic part was configured to automatically record a maximum PWT applied to the left hind paw of the rats.
The Carr-induced inflammatory pain model was built according to a published method (Alessandri-Haber N, et al. Neurosci. Vol 29(19), pp. 6217-6288, 2009) for evaluating an analgesic effect of drugs administered by intraplantar injection. […] Those rats with a PWT lower than 100 gf were considered to be a desired Carr-induced inflammatory pain model, those rats with the PWT higher than 100 gf was removed.
(S1) A total of 18 healthy adult SD rats, weighing 180-220 g, were selected, numbered on tails and placed in the same cage.
(S2) The rats were maintained in a measuring room for 2 h for adaptation.
The measurement was repeated 3-5 times for each rat with an interval of 5-10 min. The results of multiple PWT measurements were averaged as the Baseline (BL) (unit: g). After that, 6 μL of 1 wt % Carr was intradermally injected into the plantar surface of the hind paw to build an inflammatory pain rat model.
(S4) The PWT of the left hind paw of each rat was measured 1 h after the Carr injection. Rats with a higher inflammatory threshold and rats with a lower inflammatory threshold were mixed and equally divided into three groups (group A, group B and group C), each for six rats, such that any two groups of rats had similar distribution of inflammatory threshold. The groups A, B and C were intradermally injected with normal saline, 5 mg/kg of morphine and 2 μg/kg of the short peptide P10581, respectively, at the plantar surface of the left hind paw. 1 h later, the PWT of the left hind paw of the rats in each group was measured 3-5 times at an interval of 5-10 min. The multiple PWT measurement results were averaged as the practical PWT (unit: g). Then the drug was injected every 2 h according to the above-mentioned administration dose and time, and the corresponding PWT was recorded (six injections in total).
as §1, §2
(S1) A total of 20 healthy adult SD rats (half male and half female), weighing 180-220 g, were selected, numbered on tails and transferred to the same cage.
(S4) The PWT of the left hind paw of each rat was measured 1 h after the Carr injection.

Take “WKCNPNDDKAARPKLKC [P10581-1, P10581 with Cys10 and Cys11 replaced with alanine]”: in assay [1], the “effect of cysteine-mutated peptide on morphine analgesic tolerance” value is on record as “merely partially relieve the morphine analgesic tolerance”. Also, in assay [1] (after 8 injections, with morphine (FIG. 5C)), the “decrease in the analgesic effect compared to P10581” value came to 57.6%.
Regarding “WKCNPNDDKCR [P10583, comparative short peptide, reference compound]”, in assay [2], the “analgesic effect on Carr-induced inflammatory pain threshold (PWT)” value is recorded as “completely reverse the Carr-induced inflammatory pain threshold” and the “analgesic tolerance after repeated injection” value is “without developing the analgesic tolerance”. Also, the “effect on morphine analgesic tolerance” value in assay [1] (0.1 μg/kg peptide i.d. 30 min before 5 mg/kg morphine, every 2 h) is “no relieving effect”.
As for “WKCNPNDDKAARPKLKA [P10581-2, P10581 with Cys10, Cys11 and Cys17 replaced with alanine]”, the “effect of cysteine-mutated peptide on morphine analgesic tolerance” value in assay [1] is reported as “no relieving effect on the morphine analgesic tolerance”.
